Test results from article PMC5909954 (Toxicology, 2018).

Key:
Complex I = assay: immunocapture-based OXPHOS activity assay; type: biochemical, Bos taurus
[1] = target: Complex V (F1FO ATP synthase); assay: immunocapture-based OXPHOS activity assay; type: biochemical, Bos taurus

SMILES | IC50 (Complex I) | IC50 [1]
Cc1oncc1C(=O)Nc1ccc(C(F)(F)F)cc1 [leflunomide] | 200 µM | 35 µM
C/C(O)=C(\C#N)C(=O)Nc1ccc(C(F)(F)F)cc1 [A77 1726, 2-Cyano-3-hydroxy-N-[4-(trifluoromethyl)phenyl]-2-butenamide] | 229 µM | 63.7 µM
